# According to patent publication US7192722B2, “Phenethanolamine-derived haptens, immunogens, antibodies and conjugates” (Randox Laboratories, priority 2004, dated 2007):
# Several values for one entry are separate records, joined by “and”; a condition that tells them apart may be missing. Equal values may be shown once.
# How the values were obtained:
# [1] = system: Shelver polyclonal antiserum (ractopamine-hemiglutarate-KLH); conditions: Shelver pAb, cited from earlier work; for % CR: relative to ractopamine = 100%
# [2] = system: IgG fraction of the antiserum raised to immunogen C (hapten C-BSA); experiment: Competitive ELISA for ractopamine, Example 22 b): antiserum to immunogen C, conjugate C (hapten C-HRP); assay type: binding, sheep; conditions: for % CR: cross-reactivity relative to ractopamine = 100%
# Experimental: (§1) An aqueous solution of each immunogen was formulated with Freund's Complete Adjuvant (FCA) to form an emulsion consisting of 2 mg/ml immunogen in 50% (v/v) FCA. Three sheep were immunised with this emulsion (1° immunisation), 0.25 ml being subcutaneously injected at each of four sites in the flank of each animal. Subsequent immunizations (boosts) contained 1 mg/ml immunogen. All boosts were emulsified in 50% (v/v) Freund's Incomplete Adjuvant (FIA) and were administered in the same manner as the 1° immunisation, at monthly intervals for 1 year. Blood sampling took place 7 to 14 days after each boost. Each sample was processed to produce antiserum, which was further purified by caprylic acid and ammonium sulfate precipitation to yield an immunoglobulin G (IgG) fraction.
# The same definitions apply for A450, B, B0 and IC50.
# (§2) Employing each series of standards in the ractopamine competitive ELISAs, calibration curves were generated and these were used to determine the cross-reactivity of each immunoassay with these substances.
# [3] = system: IgG fraction of the antiserum raised to immunogen A (hapten A-BSA); experiment: Competitive ELISA for ractopamine, Example 22 a): antiserum to immunogen A, conjugate A (hapten A-HRP); assay type: binding, sheep; conditions: for % CR: cross-reactivity relative to ractopamine = 100%
# Experimental: as §1
# The appropriate antibody coating dilution was determined using standard ELISA checkerboard techniques. The plate was incubated for 2 hours at 37° C., washed 4 times with Tris buffered saline containing Tween 20 (TBST) and tapped dry. Standard solutions of ractopamine were prepared in TBST at 0, 0.05, 0.1, 0.5, 1, and 5 ng/ml, and 50 μl of each was added to the appropriate wells. […] The appropriate dilution of conjugate was also determined using standard ELISA checkerboard techniques. The plate was incubated at 37° C. for 2 hours. Excess unbound conjugate was removed by washing 6 times over a 10 minute period with TBST. 125 μl of tetramethylbenzidine (TMB) substrate solution was added to each well of the plate that was then incubated for 15 to 20 minutes in the dark at room temperature. The reaction was terminated by addition of 125 μl 0.2M H2SO4 to each well. The absorbance was then measured at 450 nm using a microtiter plate reader.
# as §2
# [4] = system: Shelver monoclonal antibody (5G10); conditions: Shelver mAb, cited from earlier work; for % CR: relative to ractopamine = 100%
# [5] = system: IgG fraction of the antiserum raised to immunogen D (hapten D-BSA); experiment: Competitive ELISA for isoxsuprine, Example 24: antiserum to immunogen D, conjugate D (hapten D-HRP); assay type: binding; conditions: for % CR: cross-reactivity relative to isoxsuprine = 100%
# [6] = system: IgG fraction of the antiserum raised to immunogen E (hapten E-BSA); experiment: Competitive ELISA for ritodrine, Example 25: antiserum to immunogen E, conjugate E (hapten E-HRP); assay type: binding; conditions: for % CR: cross-reactivity relative to ritodrine = 100%
# [7] = system: Haasnoot antibody derived from a fenoterol derivative; conditions: cited from earlier work
compound,measurement,setting,value
CC(C)NCC(O)c1ccc(O)c(O)c1 (racemic) [DL-Isoproterenol],IC50 CR,[1],">100,000 ng/ml"
same,% CR,[1],<0.01%
same,% CR,[2],<0.5%
same,% CR,[3],<0.16%
CC(C)NC[C@H](O)c1ccc(O)c(O)c1 [(−) Isoproterenol],% CR,[2],<0.01%
same,% CR,[3],<0.16%
CCCCNCC(O)c1ccc(O)cc1 (stereo not drawn) [Bamethane],IC50 CR,[1],"2,900 ng/ml"
same,% CR,[1],0.1%
same,IC50 CR,[4],831 ng/mL
same,% CR,[4],0.3%
same,% CR,[2],<0.01%
same,% CR,[3],<0.16%
CC(C)NCC(O)c1ccc(N)c(C#N)c1 (stereo not drawn) [Cimaterol],% CR,[2],<0.01%
same,% CR,[3],<0.16%
CC(C)(C)NCC(O)c1cc(Cl)c(N)c(Cl)c1 (stereo not drawn) [Clenbuterol],IC50 CR,[1],">100,000 ng/ml"
same,% CR,[1],<0.01%
same,% CR,[4],<0.1%
same,% CR,[2],<0.01%
same,% CR,[3],<0.16%
CC(CCc1ccc(O)cc1)NCCc1ccc(O)c(O)c1 (stereo not drawn) [Dobutamine],% CR,[5],<0.1%
same,IC50 CR,[1],12.7 ng/mL
same,% CR,[1],33%
same,IC50 CR,[4],50.3 ng/mL
same,% CR,[4],5.3%
same,% CR,[6],<5.0%
same,% CR,[2],<0.8%
same,% CR,[2]; listed as dobutamine,< 0.8%
same,% CR,[3],0.186%
same,% CR,[3]; listed as dobutamine,0.186% and < 0.8%
NCCc1ccc(O)c(O)c1 [Dopamine],% CR,[2],<0.01%
same,% CR,[3],<0.16%
CC(Cc1ccc(O)cc1)NCC(O)c1cc(O)cc(O)c1 (stereo not drawn) [Fenoterol],IC50 CR,[1],310 ng/mL
same,% CR,[1],1.3%
same,IC50 CR,[4],"2,682 ng/ml"
same,% CR,[4],0.1%
same,% CR,[2],<0.05%
same,% CR,[3],<0.16%
CC(COc1ccccc1)NC(C)C(O)c1ccc(O)cc1 (stereo not drawn) [Isoxsuprine],% CR,[5],100%
same,% B/B0,[5]; isoxsuprine 0.5 ng/ml,31.6%
same,% B/B0,[5]; isoxsuprine 1 ng/ml,17.0%
same,% B/B0,[5]; isoxsuprine 5 ng/ml,6.7%
same,% B/B0,[5]; isoxsuprine 10 ng/ml,4.9%
same,% B/B0,[5]; isoxsuprine 50 ng/ml,1.5%
same,% B/B0,[5]; isoxsuprine 100 ng/ml,1.3%
same,% B/B0,[5]; isoxsuprine 200 ng/ml,0.9%
same,IC50 CR,[1],"6,200 ng/ml"
same,% CR,[1],0.1%
same,IC50 CR,[4],"1,391 ng/ml"
same,% CR,[4],0.2%
same,% CR,[6],20.2%
same,% CR,[2],<0.6%
same,% CR,[3],<0.16%
CC(C)(C)NCC(O)c1cc(Cl)c(N)c(C(F)(F)F)c1 (stereo not drawn) [Mabuterol],% CR,[2],<0.01%
same,% CR,[3],<0.16%
CC(C)NCC(O)c1cc(O)cc(O)c1 (stereo not drawn) [Metaproterenol],IC50 CR,[1],">100,000 ng/ml"
same,% CR,[1],<0.01%
same,% CR,[2],<0.01%
same,% CR,[3],<0.16%
CC(C)(C)NCC(O)c1ccc(O)c(CO)n1 (stereo not drawn) [Pirbuterol],% CR,[2],<0.05%
same,% CR,[3],<0.16%
CC(CCc1ccc(O)cc1)NCC(O)c1ccc(O)cc1 (stereo not drawn) [Ractopamine],% CR,[5],<0.1%
same,IC50 CR,[1],4.2 ng/mL
same,% CR,[1],100%
same,IC50 CR,[4],2.69 ng/mL
same,% CR,[4],100%
same,% CR,[6],<0.5%
same,cross-reactivity,[7],20%
same,% CR,[2],100%
same,% B/B0,[2]; ractopamine 0.025 ng/ml,84%
same,% B/B0,[2]; ractopamine 0.1 ng/ml,65%
same,% B/B0,[2]; ractopamine 0.25 ng/ml,46%
same,% B/B0,[2]; ractopamine 0.5 ng/ml,34%
same,% B/B0,[2]; ractopamine 1 ng/ml,24%
same,% CR,[3],100%
same,% B/B0,[3]; ractopamine 0.05 ng/ml,53.5%
same,% B/B0,[3]; ractopamine 0.1 ng/ml,49.5%
same,% B/B0,[3]; ractopamine 0.5 ng/ml,23.7%
same,% B/B0,[3]; ractopamine 1 ng/ml,16.9%
same,% B/B0,[3]; ractopamine 5 ng/ml,6.33%
CC(NCCc1ccc(O)cc1)C(O)c1ccc(O)cc1 (stereo not drawn) [Ritodrine],% CR,[5],<0.1%
same,IC50 CR,[1],577 ng/mL
same,% CR,[1],0.8%
same,IC50 CR,[4],73.8 ng/mL
same,% CR,[4],3.6%
same,% CR,[6],100%
same,% B/B0,[6]; ritodrine 1 ng/ml,92.0%
same,% B/B0,[6]; ritodrine 5 ng/ml,82.3%
same,% B/B0,[6]; ritodrine 10 ng/ml,80.2%
same,% B/B0,[6]; ritodrine 50 ng/ml,64.7%
same,% B/B0,[6]; ritodrine 100 ng/ml,55.9%
same,% B/B0,[6]; ritodrine 500 ng/ml,30.0%
same,% B/B0,[6]; ritodrine 1000 ng/ml,22.6%
same,% CR,[2],<0.5%
same,% CR,[3],<0.16%
CC(C)(C)NCC(O)c1ccc(O)c(CO)c1 (stereo not drawn) [Salbutamol],IC50 CR,[1],"79,000 ng/ml"
same,% CR,[1],<0.01%
same,% CR,[4],<0.1%
same,% CR,[2],<0.01%
same,% CR,[3],<0.16%
OCc1cc(C(O)CNCCCCCCOCCCCc2ccccc2)ccc1O (stereo not drawn) [Salmeterol Xinafoate],IC50 CR,[1],"1,800 ng/ml"
same,% CR,[1],0.2%
same,IC50 CR,[4],1519 ng/mL
same,% CR,[4],0.2%
same,% CR,[2],<0.5%
same,% CR,[3],<0.16%
CC(C)(C)NCC(O)c1cc(O)cc(O)c1 (stereo not drawn) [Terbutaline],% CR,[2],<0.01%
same,% CR,[3],<0.16%
CC(C)(C)NCC(O)c1ccccc1Cl (stereo not drawn) [Tulobuterol],% CR,[2],<0.05%
same,% CR,[3],<0.16%
Methyl Clenbuterol,% CR,[2],<0.05%
same,% CR,[3],<0.16%
